Measurements as given in ChEMBL document CHEMBL4507319 (2021).

Experiments:
[1] = biological target: Mast/stem cell growth factor receptor Kit (Homo sapiens) (UniProt P10721); conditions: Compound concentration 1000.0 nM
[2] = biological target: SRSF protein kinase 2 (Homo sapiens) (UniProt P78362); conditions: Compound concentration 1000.0 nM
[3] = system: Receptor-type tyrosine-protein kinase FLT3 (Homo sapiens), P36888 [R834Q]; conditions: Compound concentration 1000.0 nM
[4] = biological target: Tyrosine-protein kinase JAK2 (Homo sapiens) (UniProt O60674); conditions: Compound concentration 1000.0 nM
[5] = biological target: 5-hydroxytryptamine receptor 2A (Homo sapiens) (UniProt P28223); conditions: Compound concentration 10.0 uM
[6] = biological target: Dual specificity protein kinase CLK3 (Homo sapiens) (UniProt P49761); conditions: Compound concentration 1000.0 nM
[7] = biological target: Muscarinic acetylcholine receptor M5 (Homo sapiens) (UniProt P08912); conditions: Compound concentration 10.0 uM
[8] = system: Tyrosine-protein kinase ABL1 (Homo sapiens), P00519 [Y253F]; conditions: Compound concentration 1000.0 nM
[9] = biological target: T1, Serine/threonine-protein kinase TBK1 (Homo sapiens) (UniProt Q9UHD2); conditions: Compound concentration 1000.0 nM
T1 sequence (whole entry): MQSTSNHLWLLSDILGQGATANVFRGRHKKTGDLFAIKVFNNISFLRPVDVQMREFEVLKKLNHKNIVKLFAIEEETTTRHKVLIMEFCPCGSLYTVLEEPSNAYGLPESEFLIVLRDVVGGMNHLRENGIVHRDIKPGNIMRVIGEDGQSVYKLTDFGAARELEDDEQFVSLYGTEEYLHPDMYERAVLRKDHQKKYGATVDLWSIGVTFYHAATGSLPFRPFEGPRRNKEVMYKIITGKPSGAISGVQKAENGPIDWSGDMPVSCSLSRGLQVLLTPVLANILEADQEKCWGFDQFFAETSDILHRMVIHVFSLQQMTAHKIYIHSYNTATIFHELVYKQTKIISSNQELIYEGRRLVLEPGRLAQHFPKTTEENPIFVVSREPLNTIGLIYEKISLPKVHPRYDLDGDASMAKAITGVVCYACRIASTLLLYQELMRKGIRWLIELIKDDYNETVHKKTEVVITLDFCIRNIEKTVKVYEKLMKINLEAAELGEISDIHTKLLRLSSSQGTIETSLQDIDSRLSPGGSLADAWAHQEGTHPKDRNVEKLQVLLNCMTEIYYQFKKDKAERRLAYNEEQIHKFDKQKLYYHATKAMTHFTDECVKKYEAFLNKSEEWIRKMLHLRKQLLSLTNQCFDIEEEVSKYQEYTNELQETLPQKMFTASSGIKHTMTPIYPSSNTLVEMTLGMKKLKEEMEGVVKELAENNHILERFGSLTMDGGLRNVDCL

[10] = biological target: Activin receptor type-1-like (Homo sapiens) (UniProt P37023); conditions: Compound concentration 1000.0 nM
[11] = biological target: T2, Activin receptor type-1 (Homo sapiens) (UniProt Q04771); conditions: Compound concentration 1000.0 nM
T2 sequence (whole entry): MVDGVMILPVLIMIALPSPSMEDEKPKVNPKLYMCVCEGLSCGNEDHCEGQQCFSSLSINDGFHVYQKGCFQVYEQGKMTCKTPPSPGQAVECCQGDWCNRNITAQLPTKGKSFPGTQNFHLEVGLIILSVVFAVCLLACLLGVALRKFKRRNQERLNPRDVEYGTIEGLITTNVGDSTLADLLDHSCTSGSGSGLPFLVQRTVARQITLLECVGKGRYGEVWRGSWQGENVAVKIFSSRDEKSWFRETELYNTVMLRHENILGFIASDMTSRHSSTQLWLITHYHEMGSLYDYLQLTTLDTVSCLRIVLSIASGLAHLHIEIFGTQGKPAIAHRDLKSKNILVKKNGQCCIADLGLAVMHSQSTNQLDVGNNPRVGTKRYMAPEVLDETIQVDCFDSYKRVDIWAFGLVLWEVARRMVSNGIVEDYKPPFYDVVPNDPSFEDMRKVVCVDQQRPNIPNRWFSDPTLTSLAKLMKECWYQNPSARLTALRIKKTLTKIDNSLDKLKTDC

[12] = biological target: T3, Serine/threonine-protein kinase ICK (Homo sapiens) (UniProt Q9UPZ9); conditions: Compound concentration 1000.0 nM
T3 sequence (whole entry): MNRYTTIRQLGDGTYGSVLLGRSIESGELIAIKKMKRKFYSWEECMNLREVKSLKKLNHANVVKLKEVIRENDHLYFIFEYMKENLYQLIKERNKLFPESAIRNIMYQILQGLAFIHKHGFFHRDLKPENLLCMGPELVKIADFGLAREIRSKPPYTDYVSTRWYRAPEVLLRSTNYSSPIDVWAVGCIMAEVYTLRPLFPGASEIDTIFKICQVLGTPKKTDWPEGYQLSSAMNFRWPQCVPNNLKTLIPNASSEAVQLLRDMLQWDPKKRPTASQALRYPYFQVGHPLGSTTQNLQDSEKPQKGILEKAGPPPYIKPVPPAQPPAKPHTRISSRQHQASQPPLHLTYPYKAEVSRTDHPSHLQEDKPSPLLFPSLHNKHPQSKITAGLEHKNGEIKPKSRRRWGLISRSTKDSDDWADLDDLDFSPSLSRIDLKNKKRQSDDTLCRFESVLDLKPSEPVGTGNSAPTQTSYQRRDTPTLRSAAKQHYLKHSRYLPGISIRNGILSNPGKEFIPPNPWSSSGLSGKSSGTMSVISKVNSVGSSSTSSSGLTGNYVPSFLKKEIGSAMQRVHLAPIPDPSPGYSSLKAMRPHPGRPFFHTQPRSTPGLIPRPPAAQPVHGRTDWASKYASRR

[13] = biological target: 5-hydroxytryptamine receptor 2C (Homo sapiens) (UniProt P28335); conditions: Compound concentration 10.0 uM
[14] = biological target: T4, cAMP-dependent protein kinase catalytic subunit PRKX (Homo sapiens) (UniProt P51817); conditions: Compound concentration 1000.0 nM
T4 sequence (whole entry): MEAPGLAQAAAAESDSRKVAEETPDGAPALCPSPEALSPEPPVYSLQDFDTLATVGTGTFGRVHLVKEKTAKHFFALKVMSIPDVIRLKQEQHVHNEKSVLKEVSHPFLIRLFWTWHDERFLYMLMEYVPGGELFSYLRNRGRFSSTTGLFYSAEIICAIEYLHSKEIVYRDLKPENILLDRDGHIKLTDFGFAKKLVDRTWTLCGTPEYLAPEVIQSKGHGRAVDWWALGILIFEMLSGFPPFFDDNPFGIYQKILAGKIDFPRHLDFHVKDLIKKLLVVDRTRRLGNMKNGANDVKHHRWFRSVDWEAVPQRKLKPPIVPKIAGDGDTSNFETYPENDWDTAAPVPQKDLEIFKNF

[15] = biological target: BMP-2-inducible protein kinase (Homo sapiens) (UniProt Q9NSY1); conditions: Compound concentration 1000.0 nM
Chain of BMP-2-inducible protein kinase (Homo sapiens) (Q9NSY1 whole entry, looked up): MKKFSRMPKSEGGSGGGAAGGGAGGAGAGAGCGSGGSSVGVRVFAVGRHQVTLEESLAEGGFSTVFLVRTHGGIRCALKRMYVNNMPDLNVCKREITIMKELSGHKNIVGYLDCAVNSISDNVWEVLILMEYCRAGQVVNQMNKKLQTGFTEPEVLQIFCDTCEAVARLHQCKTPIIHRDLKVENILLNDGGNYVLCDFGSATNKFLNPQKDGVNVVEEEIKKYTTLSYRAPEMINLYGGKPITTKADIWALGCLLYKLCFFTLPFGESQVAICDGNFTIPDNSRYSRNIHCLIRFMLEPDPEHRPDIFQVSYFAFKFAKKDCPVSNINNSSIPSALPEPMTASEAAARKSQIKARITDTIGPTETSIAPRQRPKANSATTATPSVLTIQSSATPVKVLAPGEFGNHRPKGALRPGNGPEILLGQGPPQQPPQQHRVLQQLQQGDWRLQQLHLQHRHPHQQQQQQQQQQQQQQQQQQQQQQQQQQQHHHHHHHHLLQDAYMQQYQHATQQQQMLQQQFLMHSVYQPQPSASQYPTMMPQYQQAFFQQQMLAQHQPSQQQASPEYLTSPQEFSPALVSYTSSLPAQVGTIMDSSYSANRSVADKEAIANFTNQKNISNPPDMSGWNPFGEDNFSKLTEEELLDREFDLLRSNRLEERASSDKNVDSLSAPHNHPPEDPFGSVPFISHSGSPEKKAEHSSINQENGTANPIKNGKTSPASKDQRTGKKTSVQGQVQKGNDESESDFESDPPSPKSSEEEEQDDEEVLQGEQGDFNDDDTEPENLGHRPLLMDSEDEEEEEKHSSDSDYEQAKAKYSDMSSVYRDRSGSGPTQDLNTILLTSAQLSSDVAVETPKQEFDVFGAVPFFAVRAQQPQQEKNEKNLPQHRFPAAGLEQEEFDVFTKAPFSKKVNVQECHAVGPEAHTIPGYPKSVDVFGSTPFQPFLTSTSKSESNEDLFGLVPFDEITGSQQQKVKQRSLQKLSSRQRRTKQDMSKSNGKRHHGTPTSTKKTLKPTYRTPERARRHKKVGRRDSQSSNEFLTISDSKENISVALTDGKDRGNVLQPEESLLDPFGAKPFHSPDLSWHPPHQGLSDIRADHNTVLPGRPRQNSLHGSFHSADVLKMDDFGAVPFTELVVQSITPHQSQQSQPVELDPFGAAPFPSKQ

Chain of 5-hydroxytryptamine receptor 2A (Homo sapiens) (P28223 whole entry): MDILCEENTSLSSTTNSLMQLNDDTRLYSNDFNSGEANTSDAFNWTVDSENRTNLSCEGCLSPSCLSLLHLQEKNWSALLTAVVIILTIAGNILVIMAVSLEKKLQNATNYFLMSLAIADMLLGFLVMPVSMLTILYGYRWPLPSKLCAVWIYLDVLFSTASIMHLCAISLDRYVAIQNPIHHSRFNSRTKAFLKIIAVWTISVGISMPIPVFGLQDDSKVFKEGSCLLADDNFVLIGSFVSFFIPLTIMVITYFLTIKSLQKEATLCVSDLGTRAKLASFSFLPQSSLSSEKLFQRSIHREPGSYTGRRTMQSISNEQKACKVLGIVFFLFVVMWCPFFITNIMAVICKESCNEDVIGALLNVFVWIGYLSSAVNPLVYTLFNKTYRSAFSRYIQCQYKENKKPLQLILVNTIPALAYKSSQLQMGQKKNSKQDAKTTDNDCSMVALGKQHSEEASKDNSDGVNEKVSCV
Chain of Activin receptor type-1-like (Homo sapiens) (P37023 whole entry): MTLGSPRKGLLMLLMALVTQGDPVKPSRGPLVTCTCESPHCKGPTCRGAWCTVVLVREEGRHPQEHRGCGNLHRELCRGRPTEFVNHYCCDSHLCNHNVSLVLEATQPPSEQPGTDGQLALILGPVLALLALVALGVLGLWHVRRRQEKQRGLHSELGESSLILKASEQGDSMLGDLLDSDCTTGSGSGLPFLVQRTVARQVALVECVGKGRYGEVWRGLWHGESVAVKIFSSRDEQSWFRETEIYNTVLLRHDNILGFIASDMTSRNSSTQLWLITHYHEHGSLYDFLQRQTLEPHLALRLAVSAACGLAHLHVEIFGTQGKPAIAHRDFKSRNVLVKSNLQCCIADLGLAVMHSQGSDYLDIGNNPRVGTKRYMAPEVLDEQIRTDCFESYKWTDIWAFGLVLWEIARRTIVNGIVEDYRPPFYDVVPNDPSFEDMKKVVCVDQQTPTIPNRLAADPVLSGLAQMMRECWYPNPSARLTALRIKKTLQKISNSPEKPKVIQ
Chain of Muscarinic acetylcholine receptor M5 (Homo sapiens) (P08912 whole entry): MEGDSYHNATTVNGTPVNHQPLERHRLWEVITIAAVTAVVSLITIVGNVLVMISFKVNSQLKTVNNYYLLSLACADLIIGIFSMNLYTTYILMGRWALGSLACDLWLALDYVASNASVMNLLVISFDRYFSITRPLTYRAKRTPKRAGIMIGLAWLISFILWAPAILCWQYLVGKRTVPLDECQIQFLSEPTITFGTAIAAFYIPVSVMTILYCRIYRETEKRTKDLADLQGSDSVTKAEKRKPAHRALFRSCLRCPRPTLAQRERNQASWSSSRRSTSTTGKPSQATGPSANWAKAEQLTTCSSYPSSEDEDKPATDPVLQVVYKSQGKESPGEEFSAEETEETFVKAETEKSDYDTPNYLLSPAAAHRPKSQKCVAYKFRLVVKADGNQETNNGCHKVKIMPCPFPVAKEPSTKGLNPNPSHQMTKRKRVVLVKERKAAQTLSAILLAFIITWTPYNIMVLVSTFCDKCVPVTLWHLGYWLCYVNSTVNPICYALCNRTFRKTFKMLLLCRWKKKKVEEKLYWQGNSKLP
Chain of Dual specificity protein kinase CLK3 (Homo sapiens) (P49761 whole entry, looked up): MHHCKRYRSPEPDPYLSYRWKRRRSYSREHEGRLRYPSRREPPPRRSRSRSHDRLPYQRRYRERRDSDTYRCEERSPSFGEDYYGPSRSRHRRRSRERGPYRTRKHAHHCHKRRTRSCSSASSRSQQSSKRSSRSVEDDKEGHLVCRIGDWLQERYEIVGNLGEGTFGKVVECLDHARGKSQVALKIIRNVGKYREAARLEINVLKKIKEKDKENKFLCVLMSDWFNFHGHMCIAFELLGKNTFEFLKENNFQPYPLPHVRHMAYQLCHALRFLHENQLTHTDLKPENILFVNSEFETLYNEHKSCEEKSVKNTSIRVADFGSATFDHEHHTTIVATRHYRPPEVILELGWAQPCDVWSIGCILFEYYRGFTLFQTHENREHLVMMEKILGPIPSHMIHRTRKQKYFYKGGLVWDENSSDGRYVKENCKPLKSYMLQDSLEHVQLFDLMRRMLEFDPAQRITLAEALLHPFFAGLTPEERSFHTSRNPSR
Chain of Tyrosine-protein kinase JAK2 (Homo sapiens) (O60674 whole entry): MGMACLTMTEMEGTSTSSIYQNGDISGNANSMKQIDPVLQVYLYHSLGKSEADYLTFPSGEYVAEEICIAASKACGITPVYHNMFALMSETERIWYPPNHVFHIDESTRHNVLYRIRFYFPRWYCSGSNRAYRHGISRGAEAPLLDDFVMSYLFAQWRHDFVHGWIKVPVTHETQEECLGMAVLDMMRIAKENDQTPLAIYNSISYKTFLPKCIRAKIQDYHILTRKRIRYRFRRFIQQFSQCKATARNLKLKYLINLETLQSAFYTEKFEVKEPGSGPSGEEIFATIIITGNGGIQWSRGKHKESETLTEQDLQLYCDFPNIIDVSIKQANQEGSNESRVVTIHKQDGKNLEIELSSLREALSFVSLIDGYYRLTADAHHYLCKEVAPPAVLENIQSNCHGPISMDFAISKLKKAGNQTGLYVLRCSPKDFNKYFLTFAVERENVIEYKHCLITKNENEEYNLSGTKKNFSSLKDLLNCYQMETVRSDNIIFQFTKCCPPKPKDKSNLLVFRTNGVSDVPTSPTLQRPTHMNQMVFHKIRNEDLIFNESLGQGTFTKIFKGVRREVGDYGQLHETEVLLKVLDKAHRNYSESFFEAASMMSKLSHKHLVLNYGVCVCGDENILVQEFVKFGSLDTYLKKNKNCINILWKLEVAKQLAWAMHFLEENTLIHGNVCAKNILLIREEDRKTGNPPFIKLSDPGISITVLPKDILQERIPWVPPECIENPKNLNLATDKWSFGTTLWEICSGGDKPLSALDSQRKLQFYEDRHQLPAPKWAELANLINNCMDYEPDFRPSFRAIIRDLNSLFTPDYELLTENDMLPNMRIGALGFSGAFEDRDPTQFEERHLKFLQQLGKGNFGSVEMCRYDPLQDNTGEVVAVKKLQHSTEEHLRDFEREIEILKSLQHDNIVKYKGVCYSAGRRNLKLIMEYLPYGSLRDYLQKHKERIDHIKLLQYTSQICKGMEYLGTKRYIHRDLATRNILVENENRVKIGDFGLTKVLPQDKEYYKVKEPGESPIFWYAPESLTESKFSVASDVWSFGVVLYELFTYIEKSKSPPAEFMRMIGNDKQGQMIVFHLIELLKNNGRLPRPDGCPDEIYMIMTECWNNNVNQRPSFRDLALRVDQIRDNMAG
Chain of 5-hydroxytryptamine receptor 2C (Homo sapiens) (P28335 whole entry): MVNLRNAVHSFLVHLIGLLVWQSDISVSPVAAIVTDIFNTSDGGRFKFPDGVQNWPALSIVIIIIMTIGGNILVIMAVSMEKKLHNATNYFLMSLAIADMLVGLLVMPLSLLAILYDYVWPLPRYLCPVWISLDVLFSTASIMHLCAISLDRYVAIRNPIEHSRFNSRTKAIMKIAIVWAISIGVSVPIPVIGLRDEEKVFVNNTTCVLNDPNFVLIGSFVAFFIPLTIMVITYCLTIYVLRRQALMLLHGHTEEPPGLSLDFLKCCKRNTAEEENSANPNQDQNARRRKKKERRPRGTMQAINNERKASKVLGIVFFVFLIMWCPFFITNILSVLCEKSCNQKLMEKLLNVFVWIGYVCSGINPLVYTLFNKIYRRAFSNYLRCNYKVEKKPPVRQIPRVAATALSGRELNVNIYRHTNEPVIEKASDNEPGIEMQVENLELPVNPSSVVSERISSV

CC1=C(C#N)C(c2ccc3c(c2)c(NC(=O)c2ccccc2C)nn3C)C(C#N)=C(C)N1 [BAY-974]
inactive: residual activity [1] 77% | residual activity [2] 88% | residual activity [3] 90% | residual activity [4] 77% | inhibition [5] 8.41% | residual activity [6] 94% | inhibition [7] 6.82% | residual activity [8] 82% | residual activity [9] 69% | residual activity [10] 97% | residual activity [11] 99% | residual activity [12] 97% | inhibition [13] 22.5% | residual activity [14] 76% | residual activity [15] 100%

CCc1ccccc1C(=O)Nc1n[nH]c2c(C)c(F)c(C3C(C#N)=C(C)N(C)C(C)=C3C#N)cc12 [BAY-3827]
inactive: residual activity [1] 100% | residual activity [2] 100% | residual activity [3] 89% | residual activity [4] 100% | inhibition [5] 14.8% | residual activity [6] 100% | inhibition [7] 17.9% | residual activity [8] 85% | residual activity [9] 77% | residual activity [10] 75% | residual activity [11] 100% | residual activity [12] 100% | inhibition [13] 20% | residual activity [14] 88% | residual activity [15] 100%
